The values that follow come from ChEMBL document CHEMBL3758090, “Investigation of α-conotoxin unbinding using umbrella sampling” (Bioorg Med Chem Lett, 2016).

Positions of bridges follow the written chain, without caps; N, C: chain ends. Residues, ends and D or L forms follow the SMILES beside them.

The target of the assay is T1, Soluble acetylcholine receptor (Aplysia californica, UniProt Q8WSF8).
T1 sequence (Q8WSF8 whole entry): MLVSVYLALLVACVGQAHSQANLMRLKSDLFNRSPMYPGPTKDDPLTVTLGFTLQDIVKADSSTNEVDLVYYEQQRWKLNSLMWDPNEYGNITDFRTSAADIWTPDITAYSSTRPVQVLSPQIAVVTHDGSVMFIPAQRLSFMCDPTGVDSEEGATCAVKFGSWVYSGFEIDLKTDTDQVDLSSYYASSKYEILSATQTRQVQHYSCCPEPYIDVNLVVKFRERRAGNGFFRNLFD
Nature of the assay: Displacement [125I]alpha-bungarotoxin from untagged Aplysia californica AChBP expressed in Sf9 cells by competitive binding assay.

On to `CC(C)C[C@@H]1NC(=O)[C@H](C)NC(=O)[C@@H]2CSSC[C@H](NC(=O)CN)C(=O)N[C@@H](CSSC[C@@H](C(=O)O)NC(=O)[C@H](Cc3ccc(O)cc3)NC(=O)[C@H](CCCCN)NC(=O)[C@@H]3CCCN3C(=O)[C@H](CC(N)=O)NC(=O)[C@H](CC(N)=O)NC1=O)C(=O)N[C@@H](CO)C(=O)N[C@@H](CC(C)C)C(=O)N1CCC[C@H]1C(=O)N1CCC[C@H]1C(=O)N2` (H-GCCSLPPCALNNPKYC-OH; disulfide 2-8, 3-16), for which the IC50 (commonly the concentration that gives 50% inhibition) worked out at 28 nM. This counts as double-digit nanomolar.
